Results as given in the supplement of paper PMC10307832.

Assays:
Assay in all cases: relative viability (nuclei count vs DMSO), 5 days (fraction); higher = more cells survive
4EGI-1 + Foretinib = compound: O=C(O)C(Cc1ccccc1[N+](=O)[O-])=NNc1nc(-c2ccc(Cl)c(Cl)c2)cs1 (mixture of isomers) [4EGI-1] + COc1cc2c(Oc3ccc(NC(=O)C4(C(=O)Nc5ccc(F)cc5)CC4)cc3F)ccnc2cc1OCCCN1CCOCC1 [Foretinib] (partner 0.25 µM)
In short: (§1)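 Medians of duplicate plates are given as relative viability. That measure is the nuclei count in treated wells divided by the count in vehicle wells. Counts were taken on 4× images of lung cancer cell lines in 1536-well plates, 5 days after pin-tool dosing the day after seeding with one drug alone or a fixed anchor-drug dose plus five library-drug doses (not always all listed) in √10 steps.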

4EGI-1 + Trametinib = compound: O=C(O)C(Cc1ccccc1[N+](=O)[O-])=NNc1nc(-c2ccc(Cl)c(Cl)c2)cs1 (mixture of isomers) [4EGI-1] + CC(=O)Nc1cccc(-n2c(=O)n(C3CC3)c(=O)c3c(Nc4ccc(I)cc4F)n(C)c(=O)c(C)c32)c1 [Trametinib] (partner 0.02 µM)
In short: as §1

4EGI-1 + Pictilisib = compound: O=C(O)C(Cc1ccccc1[N+](=O)[O-])=NNc1nc(-c2ccc(Cl)c(Cl)c2)cs1 (mixture of isomers) [4EGI-1] + CS(=O)(=O)N1CCN(Cc2cc3nc(-c4cccc5[nH]ncc45)nc(N4CCOCC4)c3s2)CC1 [Pictilisib] (partner 1 µM)
In short: as §1

XMD8-85 + Dasatinib = compound: CN1CCN(CC1)C2=CC(=C(C=C2)NC3=NC=C4C(=N3)N(C5=CC=CC=C5C(=O)N4C)C)OC [XMD8-85] + Cc1nc(Nc2ncc(C(=O)Nc3c(C)cccc3Cl)s2)cc(N2CCN(CCO)CC2)n1 [Dasatinib] (partner 0.075 µM)
In short: as §1

Cell Line	relative viability (4EGI-1 + Foretinib; first compound 0.5 µM)	relative viability (4EGI-1 + Foretinib; first compound 5 µM)	relative viability (4EGI-1 + Foretinib; first compound 15.81 µM)	relative viability (4EGI-1 + Foretinib; first compound 50 µM)	relative viability (4EGI-1 + Trametinib; first compound 0.5 µM)	relative viability (4EGI-1 + Trametinib; first compound 1.581 µM)	relative viability (4EGI-1 + Trametinib; first compound 5 µM)	relative viability (4EGI-1 + Trametinib; first compound 15.81 µM)	relative viability (4EGI-1 + Trametinib; first compound 50 µM)	relative viability (4EGI-1 + Pictilisib; first compound 0.5 µM)	relative viability (4EGI-1 + Pictilisib; first compound 1.581 µM)	relative viability (4EGI-1 + Pictilisib; first compound 5 µM)	relative viability (4EGI-1 + Pictilisib; first compound 15.81 µM)	relative viability (4EGI-1 + Pictilisib; first compound 50 µM)	relative viability (XMD8-85 + Dasatinib; first compound 0.08 µM)	relative viability (XMD8-85 + Dasatinib; first compound 0.253 µM)	relative viability (XMD8-85 + Dasatinib; first compound 0.8 µM)	relative viability (XMD8-85 + Dasatinib; first compound 2.53 µM)	relative viability (XMD8-85 + Dasatinib; first compound 8 µM)	relative viability (4EGI-1 + Foretinib; first compound 1.581 µM)
LC-2-ad	0.997	1.02	0.485	0.283	0.919	0.886	0.855	0.843	0.595	0.655	0.419	0.485	0.214	0.142	0.415	0.319	0.482	0.345	0.237	
LCLC-97TM1	0.926	0.941	0.936	0.127	0.212		0.188	0.197	0.127	0.174		0.175	0.199	0.105		0.813	0.856	1.01	0.87	0.725
SW 900	0.935	0.908	0.677	0.546	1.11	0.8	0.773	0.584	0.173						0.615	0.608	0.641	0.549	0.417	
NCI-H460	1.02	0.997	0.686	0.228	0.245	0.0821	0.109	0.133	0.018	0.381		0.366	0.331	0.261	0.423	0.443	0.554	0.475	0.178	
UMC-11	1.1	1.12	1.09	0.39	0.984	0.71	0.771	0.873	0.493	1.01	0.989	0.896	0.87	0.587	0.418	0.437	0.556	0.512	0.335	1.09
HCC-827	1.07	1.05		0.339	0.575	0.458	0.611		0.505	1.03	0.993	0.958	0.298	0.66	0.403	0.33	0.34	0.439	0.457	0.889
201T	1.2	1.18	0.985	0.63	0.714	0.705	0.742	0.744	0.636	0.702	0.655	0.707	0.638	0.603		0.641	0.55	0.616	0.529	0.861
NCI-H1755	0.953	0.872	0.815	0.704	0.773	0.802	0.711	0.72	0.556	0.604	0.477	0.459	0.398	0.235	0.409	0.432	0.434	0.482	0.353	0.854
NCI-H1944	0.894	0.974	0.782	0.655	0.481		0.354	0.314	0.334	0.357		0.331	0.33	0.285	0.203	0.228	0.204	0.223	0.203	
NCI-H1623	0.889	0.941	0.584	0.707											0.533	0.571	0.533	0.56	0.444	0.608
NCI-H1563	0.915	0.962	0.789	0.557						0.637	0.662	0.622	0.662	0.521	0.493	0.431	0.448	0.465	0.412	0.853
NCI-H1666	1.01	1.04	0.671	0.417	0.914	0.822	0.811	0.774	0.66	0.38	0.343	0.524	0.376	0.266	0.822	0.827	0.808	0.773	0.701	0.924
LCLC-103H	0.791	0.764	0.733	0.367	0.684	0.634	0.626	0.581	0.465	0.57	0.541	0.591	0.574	0.451	0.425	0.476	0.575	0.505	0.379	0.675
NCI-H1734	1.02	0.971	0.827	0.472	0.73	0.521	0.684	0.761	0.483	0.52	0.359	0.463	0.397	0.316	0.463	0.491	0.453	0.574	0.499	0.803
HOP-62	1.17	1.1	1.17	0.656	0.415	0.356	0.329	0.28	0.234	0.576		0.709	0.546	0.256	0.644	0.594	0.661		0.433	0.716
HCC-15	1.07	1.11	0.94	0.481	0.405	0.378	0.392	0.375	0.281	0.921	0.705	0.755	0.728	0.574	0.576	0.632	0.614	0.656	0.417	
NCI-H2405	1.06	1.13	1.13	1.02	0.856		0.703	0.771	0.482	0.471	0.355	0.547	0.571	0.518	0.206	0.206	0.221	0.198	0.177	1
